# Reference: ChEMBL document CHEMBL4190354, “A Realistic View on "The Essential Medicinal Chemistry of Curcumin"” (ACS Med Chem Lett, 2017)
# What was measured:
# [1] = Elimination half life in Sprague-Dawley rat at 10 mg/kg, iv by LC-MS/MS analysis; assay type: ADME, organism-based; conditions: in vivo, read-out: beta t1/2
# [2] = Elimination half life in Sprague-Dawley rat at 500 mg/kg, po by LC-MS/MS analysis; assay type: ADME, organism-based; conditions: in vivo, read-out: beta t1/2
smiles,measurement,setting,value
COc1cc(/C=C/C(=O)CC(=O)/C=C/c2ccc(O)c(OC)c2)ccc1O [CURCUMIN],half-life,[1],28.1 min
same,half-life,[2],44.5 min
